This note sets out measurements from patent US20040121946A9, “Inducing cellular immune responses to her2/neu using peptide and nucleic acid compositions” (priority 2002, published 2004).

By IC50 is commonly meant the point on the concentration scale where inhibition reaches its midpoint. Read a high IC50 as weaker potency.

Read-outs that look alike come from different tables or passages of the source. Where a SMILES comes first, the peptide text is derived from it. Where no end group is shown, it is not given here. [ ]: non-standard residue; d: D form. Abu = CC[C@H](N)C(=O)O

The target in assay [1] is HLA-A*0201 (Homo sapiens, UniProt P04439, D140Y/D185E/D98H/E176V/E277Q/G131W/G231S/I119V/I121R/I166T/I218V/L300P/L318F/N151K/N90K/P208A/P217A/Q86G/Q94H/R138H/R169H/T345S). The assay is classed as binding.
Assay [2] addresses HLA-A*0206 (Homo sapiens, UniProt P04439, D140Y/D185E/D98H/E176V/E277Q/F33Y/G131W/G231S/I119V/I121R/I166T/I218V/L300P/L318F/N151K/N90K/P208A/P217A/Q86G/Q94H/R138H/R169H/T345S). Format: binding.
Assay [3] has as its target HLA-A*0203 (Homo sapiens, UniProt P04439, A173T/D140Y/D185E/D98H/E277Q/G131W/G231S/I119V/I121R/I166T/I218V/L180W/L300P/L318F/N151K/N90K/P208A/P217A/Q86G/Q94H/R138H/R169H/T345S). The assay is classed as binding.
Assay [4] has as its system tumor targets that endogenously express HER2/neu (colon adenocarcinoma cell lines SW403 and HT-29). The assay is described as follows: Primary in vitro CTL induction, recognition of wild-type peptide and endogenous tumor targets (51Cr release / in situ IFNγ ELISA). Format: cell-based, human. Particulars: for recognition of wild-type peptide and of tumor targets endogenously expressing HER2/neu by induced CTL: in vitro, expanded positive cultures; for CTL Tumor / CTL Wildtype: number of donors yielding a positive response/total tested, normal donors. Background: In an ELISA, binding on a coated surface is turned into a signal by an enzyme label.

For assay [5], the system named is .221A2.1 cell line, peptide-loaded target. The assay is described as follows: Primary in vitro CTL induction, peptide-specific recognition (51Cr release / in situ IFNγ ELISA). Format: cell-based, human. Particulars: normal donors, peptide-pulsed targets. Here is the method: The colon adenocarcinoma cell lines SW403 and HT-29 were obtained from the American Type Culture Collection (ATCC) (Rockville, Md.). The cell lines that were obtained from ATCC were maintained under the culture conditions recommended by the supplier. […] The colon cancer cells were treated with 100U/ml IFNγ (Genzyme) for 48 hours at 37° C. before use as targets in the ^51Cr release and in situ IFNγ assays.
The monocytes were purified by plating 10×10^6 PBMC/well in a 6-well plate. After 2 hours at 37° C., the non-adherent cells were removed by gently shaking the plates and aspirating the supernatants. The wells were washed a total of three times with 3 ml RPMI to remove most of the non-adherent and loosely adherent cells. Three ml of complete medium containing 50 ng/ml of GM-CSF and 1,000 U/ml of IL-4 were then added to each well. DC were used for CTL induction cultures following 7 days of culture.
Induction of CTL with DC and Peptide: CD8+ T-cells were isolated by positive selection with Dynal immunomagnetic beads (Dynabeads® M-450) and the detacha-bead® reagent. Typically about 200-250×10^6 PBMC were processed to obtain 24×10^6 CD8^+ T-cells (enough for a 48-well plate culture). Briefly, the PBMCs were thawed in RPMI with 30 μg/ml DNAse, washed once with PBS containing 1% human AB serum and resuspended in PBS/1% AB serum at a concentration of 20×10^6cells/ml. The magnetic beads were washed 3 times with PBS/AB serum, added to the cells (140 μl beads/20×10^6 cells) and incubated for 1 hour at 4° C. with continuous mixing. The beads and cells were washed 4× with PBS/AB serum to remove the nonadherent cells and resuspended at 100×10^6 cells/ml (based on the original cell number) in PBS/AB serum containing 100 μl/ml detacha-bead® reagent and 30 μg/ml DNAse. The mixture is incubated for 1 hour at room temperature with continuous mixing. The beads were washed again with PBS/AB/DNAse to collect the CD8+ T-cells. The DC were collected and centrifuged at 1300 rpm for 5-7 minutes, washed once with PBS with 1% BSA, counted and pulsed with 40 μg/ml of peptide at a cell concentration of 1-2×10^6/ml in the presence of 3 μg/ml β2-microglobulin for 4 hours at 20° C. The DC were then irradiated (4,200 rads), washed 1 time with medium and counted again.
Setting up induction cultures: 0.25 ml cytokine-generated DC (@1×10^5 cells/ml) were co-cultured with 0.25 ml of CD8+ T-cells (@2×10^6 cell/ml) in each well of a 48-well plate in the presence of 10 ng/ml of IL-7. rHuman IL10 was added the next day at a final concentration of 10 ng/ml and rhuman IL2 was added 48 hours later at 10 IU/ml.
Restimulation of the induction cultures with peptide-pulsed adherent cells: Seven and fourteen days after the primary induction the cells were restimulated with peptide-pulsed adherent cells. The PBMCS were thawed and washed twice with RPMI and DNAse. The cells were resuspended at 5×10^6 cells/ml and irradiated at ˜4200 rads. The PBMCs were plated at 2×10^6 in 0.5 ml complete medium per well and incubated for 2 hours at 37° C. The plates were washed twice with RPMI by tapping the plate gently to remove the nonadherent cells and the adherent cells pulsed with 10 μg/ml of peptide in the presence of 3 μg/ml β2 microglobulin in 0.25 ml RPMI/5%AB per well for 2 hours at 37° C. Peptide solution from each well was aspirated and the wells were washed once with RPMI. Most of the media was aspirated from the induction cultures (CD8+ cells) and brought to 0.5 ml with fresh media. […]

For assay [6], the system named is peptide-pulsed target cells and transfected cells endogenously expressing the antigen. The assay is described as follows: Recall CTL responses of PBMCs from ovarian cancer patients. Format: cell-based, human. As to conditions: data from ovarian cancer patients.
Source text: Immunogenicity was additionally confirmed using PBMCs isolated from cancer patients. Briefly, PBMCs were isolated from two patients with ovarian cancer, re-stimulated with peptide-pulsed monocytes and assayed for the ability to recognize peptide-pulsed target cells as well as transfected cells endogenously expressing the antigen.
[7] abbreviates: HLA-A2 supermotif-bearing peptides, Table XXVII.
Where [8] appears, read: Table XXII, A2 supermotif peptides and analogs.

Consider VLLGVVFGV, for which the IC50 amounted to 2.4 nM in assay [1] (setting [7]) and 6 nM in assay [2] (Table XXVII).
For the compound VLIQRNPQV, the half-inhibitory concentration (IC50) worked out at 55 nM in assay [1], 385 nM in assay [2] (Table XXVII) and 135 nM in assay [3] (Table XXVII).
Compound `CC[C@H](NC(=O)[C@H](CC(C)C)NC(=O)[C@H](C)N)C(=O)N[C@@H](CCCNC(=N)N)C(=O)N[C@@H](Cc1c[nH]c2ccccc12)C(=O)NCC(=O)N[C@@H](CC(C)C)C(=O)N[C@@H](CC(C)C)C(=O)N[C@H](C(=O)O)C(C)C` [Her2neu.5B3V9] (H-AL[Abu]RWGLLV-OH) gave a half-inhibitory concentration (IC50) in assay [1] (setting [8]) of 18 nM. The “recognition of wild-type peptide and of tumor targets endogenously expressing HER2/neu by induced CTL” value in assay [4] was “no wild-type peptide or endogenous recognition was observed”. Also, in assay [5], the “induction of peptide-specific CTL” value is listed as “induced peptide-specific CTLs in at least 2 donors”.
Consider `CC[C@H](C)[C@H](NC(=O)[C@H](CC(C)C)NC(=O)[C@@H](N)Cc1ccc(O)cc1)C(=O)N[C@@H](CCSC)C(=O)N[C@H](C(=O)N[C@@H](CCCCN)C(=O)N[C@@H](CS)C(=O)N[C@@H](Cc1c[nH]c2ccccc12)C(=O)N[C@@H](CCSC)C(=O)N[C@H](C(=O)O)C(C)C)C(C)C`, for which the IC50 in assay [1] (setting [7]) amounted to 13 nM; in assay [2] (Table XXVII), 18 nM; in assay [3] (Table XXVII), 116 nM.
Consider `CC[C@H](C)[C@H](NC(=O)[C@H](CCSC)NC(=O)[C@H](Cc1c[nH]c2ccccc12)NC(=O)[C@H](CS)NC(=O)[C@H](CCCCN)NC(=O)[C@@H](NC(=O)[C@H](CCSC)NC(=O)[C@@H](NC(=O)[C@H](CCSC)NC(=O)[C@@H](N)Cc1ccc(O)cc1)[C@@H](C)CC)C(C)C)C(=O)O`, for which, in assay [4], the “CTL Tumor” value was 0/1 and the “CTL Wildtype” value is 0/1. In assay [6], the “CTL Tumor” value was 2/2 and the “CTL Wildtype” value is given as 2/2.
Turning to `CC[C@H](C)[C@H](NC(=O)[C@H](CCC(=O)O)NC(=O)[C@@H](NC(=O)[C@H](CC(C)C)NC(=O)[C@@H](N)CO)[C@@H](C)O)C(=O)N[C@@H](CC(C)C)C(=O)N[C@@H](CCCCN)C(=O)NCC(=O)NCC(=O)N[C@H](C(=O)O)C(C)C` [Her2/neu.144], in assay [3] (setting [8]), the midpoint of inhibition, the IC50, lay at 22 nM.
As to `CC(C)C[C@H](NC(=O)[C@H](CO)NC(=O)CNC(=O)[C@H](Cc1ccccc1)NC(=O)[C@@H](NC(=O)[C@@H](N)CCCCN)[C@@H](C)O)C(=O)N[C@@H](C)C(=O)N[C@@H](Cc1ccccc1)C(=O)N[C@H](C(=O)O)C(C)C`, the figures for the 50% inhibitory concentration (IC50) in assay [1] (setting [7]) and in assay [3] (Table XXVII) were 35 nM and 1010 nM, respectively.
H-QLMPYGCLL-OH [Her2/neu.799]: the figures for the half-maximal inhibitory concentration (IC50) in assay [2] (setting [8]) and in assay [3] (setting [8]) were 712 nM and 114 nM, respectively.
Regarding `CC[C@H](NC(=O)[C@H](CC(C)C)NC(=O)[C@H](C)N)C(=O)N[C@@H](CCCNC(=N)N)C(=O)N[C@@H](Cc1c[nH]c2ccccc12)C(=O)NCC(=O)N[C@@H](CC(C)C)C(=O)N[C@@H](CC(C)C)C(=O)N[C@@H](CC(C)C)C(=O)O` [Her2/neu.5.B3], in assay [3] (setting [8]), the IC50 stood at 12 nM.
As to `CC[C@H](NC(=O)[C@H](CCSC)NC(=O)[C@H](C)N)C(=O)N[C@@H](CCCNC(=N)N)C(=O)N[C@@H](Cc1c[nH]c2ccccc12)C(=O)NCC(=O)N[C@@H](CC(C)C)C(=O)N[C@@H](CC(C)C)C(=O)N[C@H](C(=O)O)C(C)C` [Her2/neu.5M2B3V9] (H-AM[Abu]RWGLLV-OH), the IC50 in assay [1] (setting [8]) was found to be 36 nM; in assay [2] (setting [8]), 726 nM; in assay [3] (setting [8]) it was 16 nM.
Take `CC[C@H](C)[C@H](NC(=O)[C@H](CC(C)C)NC(=O)[C@@H](N)CO)C(=O)N[C@@H](CO)C(=O)N[C@@H](C)C(=O)N[C@H](C(=O)N[C@H](C(=O)NCC(=O)N[C@H](C(=O)O)C(C)C)C(C)C)C(C)C`: the results for the concentration for half-maximal inhibition (IC50) in assay [1] (setting [7]), in assay [2] (Table XXVII) and in assay [3] (Table XXVII) were 7.1 nM, 20 nM and 16 nM, respectively.
As to `CC(C)C[C@H](NC(=O)[C@H](CO)NC(=O)CNC(=O)[C@H](Cc1ccccc1)NC(=O)[C@@H](NC(=O)[C@@H](N)CCCCN)C(C)C)C(=O)N[C@@H](C)C(=O)N[C@@H](Cc1ccccc1)C(=O)N[C@H](C(=O)O)C(C)C` [Position V2V9], the “recognition of wild-type peptide and of tumor targets endogenously expressing HER2/neu by induced CTL” value in assay [4] is recorded as “also recognized the target tumor cells”. In addition, in assay [5], the “induction of peptide-specific CTL” value was “induced peptide-specific CTLs”.
For the compound H-VLLGVVFGV-OH [Her2/neu.665L2V9], in assay [4], the “recognition of wild-type peptide and of tumor targets endogenously expressing HER2/neu by induced CTL” value was “Peptide-specific CTL activity was maintained in some of the cultures, but no corresponding endogenous recognition was observed”. Also, in assay [5], the “induction of peptide-specific CTL” value was “strong peptide-specific CTL response was observed”.
For the compound `CC[C@H](NC(=O)[C@@H](NC(=O)[C@H](C)N)C(C)C)C(=O)N[C@@H](CCCNC(=N)N)C(=O)N[C@@H](Cc1c[nH]c2ccccc12)C(=O)NCC(=O)N[C@@H](CC(C)C)C(=O)N[C@@H](CC(C)C)C(=O)N[C@H](C(=O)O)C(C)C` [Her2/neu.5V2B3V9] (H-AV[Abu]RWGLLV-OH), the half-inhibitory concentration (IC50) in assay [1] (setting [8]) was 10000 nM; in assay [2] (setting [8]) it was 2180 nM; in assay [3] (setting [8]), 141 nM.
With `CC(C)C[C@H](NC(=O)[C@H](CO)NC(=O)CNC(=O)[C@H](Cc1ccccc1)NC(=O)[C@H](CC(C)C)NC(=O)[C@@H](N)CCCCN)C(=O)N[C@@H](C)C(=O)N[C@@H](Cc1ccccc1)C(=O)N[C@H](C(=O)O)C(C)C` [Her2/neu.369L2V9], the “recognition of wild-type peptide and of tumor targets endogenously expressing HER2/neu by induced CTL” value in assay [4] is reported as “also recognized the target tumor cells”. Besides, in assay [5], the “induction of peptide-specific CTL” value is on record as “induced peptide-specific CTLs”.
Consider `CC[C@H](NC(=O)[C@@H](NC(=O)[C@H](C)N)[C@@H](C)O)C(=O)N[C@@H](CCCNC(=N)N)C(=O)N[C@@H](Cc1c[nH]c2ccccc12)C(=O)NCC(=O)N[C@@H](CC(C)C)C(=O)N[C@@H](CC(C)C)C(=O)N[C@H](C(=O)O)C(C)C` [Her2/neu.5.T2B3V9] (H-AT[Abu]RWGLLV-OH), for which the IC50 stood at 16700 nM in assay [1] (setting [8]) and 2180 nM in assay [2] (setting [8]).
As to `CC(C)C[C@H](NC(=O)[C@H](CCC(N)=O)NC(=O)[C@@H](NC(=O)[C@@H](NC(=O)[C@H](CO)NC(=O)[C@@H](NC(=O)[C@H](CC(C)C)NC(=O)[C@@H](N)CS)[C@@H](C)O)[C@@H](C)O)C(C)C)C(=O)N[C@H](C(=O)O)C(C)C`, in assay [4], the “CTL Tumor” value is on record as 0/4 and the “CTL Wildtype” value is given as 1/4. Further, the “CTL Wildtype” value in assay [6] was 1/2.
